The structures appear in SMILES notation. Activity calls are given as the source filed them. No cut-off for these calls is given here.

Among the data in ChEMBL document CHEMBL1147993, “Inhibitory effect of obovatal on the migration and invasion of HT1080 cells via the inhibition of MMP-2” (Bioorg Med Chem, 2007) are Activity, inhibition and IC50 values, retold here.

Data set [1] has as its system HT-1080. Nature of the data set: Reduction of MMP2 protein expression in HT1080 cells at 20 uM ny Western blot. The format is functional, Homo sapiens. More on the design: scale not given: the % may be the effect or the level left.
Data set [2] deals with HT-1080. Nature of the data set: Reduction of MMP2 mRNA expression in HT1080 cells at 20 uM by RT-PCR. The data set is classed as functional, Homo sapiens. More on the design: scale not given: the % may be the effect or the level left.
Data set [3] relates to HT-1080. Nature of the data set: Inhibition of invasion of HT1080 cells at 20 uM after 24 hrs by Matrigel invasion assay relative to control. The data set is classed as functional. The conditions noted are these: Homo sapiens, HT-1080, 24 h.
For data set [4], the target named is T1, 72 kDa type IV collagenase (Homo sapiens, UniProt P08253). Nature of the data set: Inhibition of MMP2 in HT1080 cells at 15 uM by gelatin zymography assay. The format is cell-based. The conditions noted are these: HT-1080.
Target sequence in this assay (P08253 110-660 limits assumed): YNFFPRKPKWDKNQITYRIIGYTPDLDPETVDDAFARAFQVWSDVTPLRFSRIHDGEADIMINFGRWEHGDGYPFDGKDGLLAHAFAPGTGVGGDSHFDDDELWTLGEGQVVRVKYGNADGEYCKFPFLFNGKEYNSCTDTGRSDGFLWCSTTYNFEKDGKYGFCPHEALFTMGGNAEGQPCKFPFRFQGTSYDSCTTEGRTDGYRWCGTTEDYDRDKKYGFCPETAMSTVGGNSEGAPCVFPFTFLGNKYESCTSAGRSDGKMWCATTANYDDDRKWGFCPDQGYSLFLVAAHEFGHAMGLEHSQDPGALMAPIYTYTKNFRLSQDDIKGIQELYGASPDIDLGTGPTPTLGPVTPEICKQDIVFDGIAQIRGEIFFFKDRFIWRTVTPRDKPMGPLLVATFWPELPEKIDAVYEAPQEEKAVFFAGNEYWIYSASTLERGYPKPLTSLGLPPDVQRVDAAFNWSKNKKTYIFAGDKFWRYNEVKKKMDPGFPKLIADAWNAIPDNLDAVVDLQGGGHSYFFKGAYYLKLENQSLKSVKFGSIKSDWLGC
The subject of data set [5] is HT-1080. The data set is described as follows: Inhibition of migration of HT1080 cells at 20 uM by wound healing assay. The data set is classed as functional, cell-based. Conditions: Homo sapiens.
Data set [6] concerns the target T1, 72 kDa type IV collagenase. The data set is described as follows: Inhibition of MMP2 expressed in insect cells.
Target sequence in this assay (P08253 whole entry): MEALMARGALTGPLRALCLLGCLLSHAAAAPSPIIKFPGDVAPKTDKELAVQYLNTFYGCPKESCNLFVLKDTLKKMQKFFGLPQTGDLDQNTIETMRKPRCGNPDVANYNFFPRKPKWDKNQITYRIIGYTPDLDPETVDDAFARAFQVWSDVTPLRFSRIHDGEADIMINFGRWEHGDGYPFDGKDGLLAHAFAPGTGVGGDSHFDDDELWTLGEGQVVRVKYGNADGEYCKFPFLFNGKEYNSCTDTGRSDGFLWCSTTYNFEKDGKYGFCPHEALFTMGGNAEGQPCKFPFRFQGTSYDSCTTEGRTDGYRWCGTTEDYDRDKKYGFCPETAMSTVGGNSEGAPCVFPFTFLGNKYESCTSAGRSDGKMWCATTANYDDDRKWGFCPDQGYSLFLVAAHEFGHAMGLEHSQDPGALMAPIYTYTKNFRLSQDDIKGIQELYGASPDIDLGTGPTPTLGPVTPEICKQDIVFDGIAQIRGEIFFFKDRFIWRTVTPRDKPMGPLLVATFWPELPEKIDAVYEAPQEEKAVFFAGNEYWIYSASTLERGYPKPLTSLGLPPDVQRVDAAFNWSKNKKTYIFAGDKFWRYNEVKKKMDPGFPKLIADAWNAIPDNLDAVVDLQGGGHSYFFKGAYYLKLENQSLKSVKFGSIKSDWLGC
The next data set has as its system HFF. The data set is described as follows: Effect on growth of HFF cells after 48 hrs by WST1 reduction assay. The format is cell-based. The conditions noted are these: human.
The test system of a further data set is HCT-116. Nature of the data set: Growth inhibition of HCT116 cells up to 50 uM after 48 hrs by WST1 reduction assay. The data set is classed as functional, cell-based. The conditions noted are these: Homo sapiens.

For `C=CCc1ccc(Oc2cc(/C=C/C=O)cc(O)c2O)cc1` [OBOVATAL], the Activity is 70% in the data set with HT-1080 [1], 70% with HT-1080 [2] and “Non-toxic” in the data set on HFF. Also, the inhibition at 20 µM in the data set with HT-1080 [3] amounted to 70%. Further, the result (in data set [4]; in the data set with HT-1080 [5]; in the data set with HCT-116) was Active. Further, it took 800 nM to reach half-maximal inhibition in data set [6] (IC50).
